Test results from the supplement of paper PMC5908809.

Columns and labels:
KHYG-1 (IL-2 2.5 ng/mL) [1] = assay: percent inhibition of viability; higher = more inhibition; details: 72 h
[2] = tested on: normal primary NK cells, pool 2 (3 donors) (IL-2 2.5 ng/mL); assay: as above; details: 72 h
DERL-7 (IL-2 2.5 ng/mL) [3] = assay: as above; details: 72 h
NKL (IL-2 2.5 ng/mL) [4] = assay: as above; details: 72 h
KAI3 (IL-2 2.5 ng/mL) [5] = assay: as above; details: 72 h
NK-92 (IL-2 2.5 ng/mL) [6] = assay: as above; details: 72 h
YT (IL-2 2.5 ng/mL) [7] = assay: as above; details: 72 h
[8] = tested on: normal primary NK cells, pool 3 (3 donors) (IL-2 2.5 ng/mL); assay: as above; details: 72 h
SNK-6 (IL-2 2.5 ng/mL) [9] = assay: as above; details: 72 h
[10] = tested on: normal primary NK cells, pool 1 (3 donors), resting (IL-2 0 ng/mL); assay: as above; details: 72 h
IMC-1 (IL-2 20 ng/mL) [11] = assay: as above; details: 72 h
NK-YS (IL-2 2.5 ng/mL) [12] = assay: as above; details: 72 h
[13] = tested on: normal primary NK cells, pool 1 (3 donors) (IL-2 2.5 ng/mL); assay: as above; details: 72 h
[14] = tested on: normal NK cells expanded with K562-aAPC; assay: drug sensitivity score (DSS) (DSS units); higher = more sensitive; extreme values may be limits of the assay; details: 72 h; IL-2 2.5 ng/mL
Protocol: (§1)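 Drug sensitivity and resistance testing on K562-aAPC-expanded normal NK cells: 5 concentrations (10-fold steps over a 10,000-fold range), 72 h at 37 °C, viability by CellTiter-Glo normalised to DMSO and benzethonium chloride controls; DSS from the fitted curve.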

KHYG-1 (IL-2 2.5 ng/mL) [15] = assay: as above; details: 72 h
[16] = tested on: normal primary NK cells, pool 2 (3 donors) (IL-2 2.5 ng/mL); assay: as above; details: 72 h
DERL-7 (IL-2 2.5 ng/mL) [17] = assay: as above; details: 72 h
NKL (IL-2 2.5 ng/mL) [18] = assay: as above; details: 72 h
KAI3 (IL-2 2.5 ng/mL) [19] = assay: as above; details: 72 h
NK-92 (IL-2 2.5 ng/mL) [20] = assay: as above; details: 72 h
YT (IL-2 2.5 ng/mL) [21] = assay: as above; details: 72 h
[22] = tested on: normal primary NK cells, pool 3 (3 donors) (IL-2 2.5 ng/mL); assay: as above; details: 72 h
SNK-6 (IL-2 2.5 ng/mL) [23] = assay: as above; details: 72 h
[24] = tested on: normal primary NK cells, pool 1 (3 donors), resting (IL-2 0 ng/mL); assay: as above; details: 72 h
IMC-1 (IL-2 20 ng/mL) [25] = assay: as above; details: 72 h
NK-YS (IL-2 2.5 ng/mL) [26] = assay: as above; details: 72 h
[27] = tested on: normal primary NK cells, pool 1 (3 donors) (IL-2 2.5 ng/mL); assay: as above; details: 72 h
[28] = tested on: normal NK cells expanded with K562-aAPC; assay: percent inhibition of viability; higher = more inhibition; details: 72 h, IL-2 2.5 ng/mL
Protocol: as §1

COc1ccc(COc2cc3oc(=O)c4cc(C(C)O)ccc4c3cc2OC)cc1 (centres undefined) [Palomid-529] (max concentration tested 10000 nM)
percent inhibition of viability [%]
Details	1 nM	10 nM	100 nM	1000 nM	10000 nM
DERL-7 (IL-2 2.5 ng/mL) [3]	-6.43	-4.11	-0.12	1.25	21.1
IMC-1 (IL-2 20 ng/mL) [11]	-5.32	-4.51	2.75	4.92	7.18
KAI3 (IL-2 2.5 ng/mL) [5]	-1.34	0.71	-2.91	8.03	46.9
KHYG-1 (IL-2 2.5 ng/mL) [1]	1.15	-4.29	-3.13	9.18	59.6
NK-92 (IL-2 2.5 ng/mL) [6]	-6.63	-14.2	2.8	30.5	83.4
NK-YS (IL-2 2.5 ng/mL) [12]	-3.04	-9.05	-5.45	9.61	44.8
NKL (IL-2 2.5 ng/mL) [4]	-6.62	-2.59	6.05	30.5	33.3
SNK-6 (IL-2 2.5 ng/mL) [9]	-15.9	-23.8	-10.8	8.45	5.08
YT (IL-2 2.5 ng/mL) [7]	-2.49	-9.33	-3.82	12.3	49.4
[2]	-5.4	-5.23	-8.91	-7.52	4.06
[8]	-14.4	-4.43	2.41	-2.08	5.65
[10]	-31.1	-17.8	-2.41	-12.2	10.7
[13]	-7.97	-4.09	6.27	8.93	4.45
[28]	-9.29	-6.42	-4.58	4.67	5.9

Details	drug sensitivity score
DERL-7 (IL-2 2.5 ng/mL) [17]	0.82
IMC-1 (IL-2 20 ng/mL) [25]	0
KAI3 (IL-2 2.5 ng/mL) [19]	3.78
KHYG-1 (IL-2 2.5 ng/mL) [15]	4.78
NK-92 (IL-2 2.5 ng/mL) [20]	8.66
NK-YS (IL-2 2.5 ng/mL) [26]	3.86
NKL (IL-2 2.5 ng/mL) [18]	5.94
SNK-6 (IL-2 2.5 ng/mL) [23]	0
YT (IL-2 2.5 ng/mL) [21]	4.52
[14]	0
[16]	0
[22]	0
[24]	0
[27]	0
